Source: PMC2996141 (Journal of chemical information and modeling, 2010)
Entries after “also recorded” stand apart in the source; their conditions may differ. Read-outs that look alike come from different tables or passages of the source.

Assays:
[1] = system: microtubules (taxoid site); experiment: Inhibition of [^3H]paclitaxel binding to microtubules; parameters: species or system Bovine; conditions: for % inhibition ± SD, radiolabeled ligand [^3H]paclitaxel: 2.0 µM tubulin as microtubules, radiolabeled ligand 4.0 µM, inhibitor 20 µM
[2] = biological target: microtubules (laulimalide/peloruside A site) (Bos taurus, UniProt Q6B856); experiment: Inhibition of [^3H]peloruside A binding to microtubules; parameters: species or system Bovine; conditions: for % inhibition ± SD, radiolabeled ligand [^3H]peloruside A: 2.0 µM tubulin as microtubules, radiolabeled ligand 4.0 µM, inhibitor 20 µM; for type of inhibition of [^3H]peloruside A binding: Hanes analysis; for Ki: read-out: apparent Ki, inhibition of [^3H]peloruside A binding, Dixon analysis, competitive; for inhibition at 20 µM: read-out: % inhibition ± SD, radiolabeled ligand [^3H]peloruside A
Chain of microtubules (laulimalide/peloruside A site) (Q6B856 whole entry): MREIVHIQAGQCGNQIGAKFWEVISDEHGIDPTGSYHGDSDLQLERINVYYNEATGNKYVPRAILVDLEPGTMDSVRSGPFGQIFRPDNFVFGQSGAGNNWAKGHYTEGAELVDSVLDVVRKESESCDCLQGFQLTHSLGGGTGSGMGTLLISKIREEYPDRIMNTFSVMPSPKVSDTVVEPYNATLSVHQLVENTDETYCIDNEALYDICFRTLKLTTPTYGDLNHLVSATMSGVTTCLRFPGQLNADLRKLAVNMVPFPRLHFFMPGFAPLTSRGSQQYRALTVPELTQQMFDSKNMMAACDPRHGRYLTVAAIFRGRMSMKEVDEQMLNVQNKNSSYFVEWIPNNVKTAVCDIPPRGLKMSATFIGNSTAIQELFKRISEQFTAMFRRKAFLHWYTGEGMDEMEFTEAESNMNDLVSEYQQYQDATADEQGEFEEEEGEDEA
Chain of microtubules (laulimalide/peloruside A site) (P81947 whole entry partner): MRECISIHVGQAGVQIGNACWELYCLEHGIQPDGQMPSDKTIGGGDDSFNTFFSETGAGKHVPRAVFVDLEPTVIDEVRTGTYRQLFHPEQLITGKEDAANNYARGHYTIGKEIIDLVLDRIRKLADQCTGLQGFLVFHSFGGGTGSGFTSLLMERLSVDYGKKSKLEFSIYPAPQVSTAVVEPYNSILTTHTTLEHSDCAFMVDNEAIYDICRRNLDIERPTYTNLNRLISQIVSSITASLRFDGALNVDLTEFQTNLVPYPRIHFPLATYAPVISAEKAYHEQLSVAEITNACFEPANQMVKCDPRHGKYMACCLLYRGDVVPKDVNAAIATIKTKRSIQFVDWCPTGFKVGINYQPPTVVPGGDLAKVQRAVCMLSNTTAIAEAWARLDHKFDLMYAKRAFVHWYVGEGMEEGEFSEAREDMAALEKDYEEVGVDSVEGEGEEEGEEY

[3] = system: cell growth; conditions: cited from earlier work
[4] = biological target: T1, tubulin polymer (microtubules) (Bos taurus, UniProt Q6B856); experiment: Binding of [^3H]paclitaxel to preformed tubulin polymer, Scatchard analysis; parameters: species or system Bovine
T1 sequence (Q6B856 whole entry): as the sequence (Q6B856 whole entry) above
T1 sequence (P81947 whole entry partner): as the sequence (P81947 whole entry partner) above

[5] = biological target: T1, tubulin polymer (microtubules); experiment: Binding of [^3H]peloruside A to preformed tubulin polymer, Scatchard analysis; parameters: species or system Bovine

Row | Compound | ability to inhibit [^3H]paclitaxel binding [1] | % inhibition ± SD, radiolabeled ligand [^3H]paclitaxel [1] | ability to inhibit [^3H]peloruside A binding (words) [2] | inhibition at 20 µM [2] | other results
1 | C=C1C[C@H](C)C[C@@H]2CC=C[C@@H](C/C=C\C(=O)O[C@H]([C@@H](O)/C=C/[C@@H]3CC(C)=CCO3)C[C@@H]3O[C@H]3[C@@H](O)C1)O2 [laulimalide] | essentially inactive | 1.7 ± 5% | inhibitory; also recorded: potent competitive inhibitor | – | % inhibition ± SD, radiolabeled ligand [^3H]peloruside A [2]: 90 ± 0.1%; type of inhibition of [^3H]peloruside A binding [2]: competitive inhibitor; Ki [2]: 250 nM
2 | C=C1C[C@H](C)C[C@@H]2CC=C[C@@H](C/C=C\C(=O)O[C@@H](/C=C/[C@@H]3CC(C)=CCO3)[C@@H](O)C[C@@H]3O[C@H]3[C@@H](O)C1)O2 [compound 13, neolaulimalide] | – | – | – | – | activity in cells and with tubulin relative to laulimalide ([3]; ref Gollner et al. 41): equivalent to that of laulimalide
3 | CC[C@H](/C=C(/C)[C@@H]1C[C@@H](OC)C[C@H](O)C(C)(C)[C@@]2(O)O[C@@H](C[C@@H](O)[C@H](O)C(=O)O1)C[C@@H](OC)[C@H]2O)CO [peloruside B] | – | – | – | – | cytotoxicity relative to peloruside A [3]: about three-fold less cytotoxic
4 | C=C/C=C\[C@H](C)[C@H](OC(N)=O)[C@@H](C)[C@H](O)[C@@H](C)C/C(C)=C\[C@H](C)[C@@H](O)[C@@H](C)/C=C\[C@@H](O)C[C@@H]1OC(=O)[C@H](C)[C@@H](O)[C@H]1C [discodermolide] | strong inhibitors | 87 ± 2% | essentially no ability to inhibit; also recorded: little activity | 5 ± 2% | –
5 | CC(=O)O[C@H]1C(=O)[C@@]2(C)[C@H]([C@H](OC(=O)c3ccccc3)[C@]3(O)C[C@H](OC(=O)[C@H](O)[C@@H](NC(=O)c4ccccc4)c4ccccc4)C(C)=C1C3(C)C)[C@]1(OC(C)=O)CO[C@@H]1C[C@@H]2O [paclitaxel] | – | – | little activity | 6.8 ± 0.5% | Kd [4]: 240 nM; ability to inhibit [^3H]peloruside A binding (words) ([2]; listed as Paclitaxel): essentially no ability to inhibit
6 | CC[C@@H](/C=C(/C)[C@H]1C[C@H](OC)C[C@@H](O)C(C)(C)[C@]2(O)O[C@H](C[C@H](OC)[C@@H](O)C(=O)O1)C[C@H](OC)[C@@H]2O)CO [peloruside A] | – | 5.1 ± 6% | – | – | number of binding sites per tubulin αβ-dimer in microtubules [5]: one binding site
7 | C/C(=C\c1csc(C)n1)[C@@H]1C[C@@H]2O[C@]2(C)CCC[C@H](C)[C@H](O)[C@@H](C)C(=O)C(C)(C)[C@@H](O)CC(=O)O1 [epothilone B] | strong inhibitors | 79 ± 5% | essentially no ability to inhibit; also recorded: little activity | 2.2 ± 5% | –
8 | (11-R)-peloruside A | essentially inactive | 0 ± 8% | inhibitory | – | % inhibition ± SD, radiolabeled ligand [^3H]peloruside A [2]: 49 ± 1%; type of inhibition of [^3H]peloruside A binding [2]: competitive inhibitors; Ki [2]: 9300 nM
